Experiments:
Danio rerio embryo = experiment: BMC10 any morphological effect or mortality at 120 hpf; higher = less toxic
Experimental: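 ZBEscreen: dechorionated Tropical 5D zebrafish embryos were exposed from 4 hpf in 96-well plates (1% DMSO, 28 °C). All compounds were first tested at 100 µM; hits were retested at 0.005-100 µM. Morphology and mortality were scored at 120 hpf and fitted as BMC10 (3-parameter log-logistic, extra risk). The embryonic photomotor response at 24 hpf and the larval photomotor response at 120 hpf are given as lowest effect levels (K-S test, p<0.01). NA = not significant up to 100 µM; NT = not tested.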

HL-60 = experiment: Cell Health Index (toxicity pseudo-probability over dose series) (index 0-1); higher = more cytotoxic / cell stress;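 also: HL-60 cells exposed 4 h at 37 °C to ten threefold dilutions spanning 5 nM to 100 µM, multiparametric flow cytometry features scored by machine-learning classification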

SMILES	BMC10 any morphological effect or mortality (Danio rerio embryo) [µM]	Cell Health Index (HL-60)
NC(=O)NO [Hydroxyurea]	> 100	0.161
CC(C)(C)NC(=O)[C@@H]1C[C@@H]2CCCC[C@@H]2CN1C[C@@H](O)[C@H](Cc1ccccc1)NC(=O)[C@H](CC(N)=O)NC(=O)c1ccc2ccccc2n1.CS(=O)(=O)O [Saquinavir]	> 100	0.87
C[C@@]1(F)[C@H](O)[C@@H](CO)O[C@H]1n1ccc(=O)[nH]c1=O [PSI-6206]	> 100	0.116
CCN(CC)Cc1ccc(C(=O)N(CCc2ccccc2OC)[C@@H]2CCNC2)cc1.Cl.Cl	> 100	0.318
Cl.NC12C[C@H]3C[C@@H](C1)C[C@@H](C2)C3 [Amantadine]	> 100	0.195
C=C1CC[C@@H]2[C@](C)(CO[C@@H]3O[C@H](CO)[C@@H](O)[C@H](O)[C@H]3O)CCC[C@@]2(C)[C@@H]1CCC1=CCOC1=O [Neoandrographolide]	> 100	0.21
CC(C)(C)NC(=O)[C@@H]1CN(Cc2cccnc2)CCN1C[C@@H](O)C[C@@H](Cc1ccccc1)C(=O)N[C@H]1c2ccccc2C[C@H]1O.O=S(=O)(O)O [Indinavir]	> 100	0.233
O=C1CCC[C@@H]2[C@H]3CCC[N+]4([O-])CCC[C@@H](CN12)[C@@H]34 (stereo not given in full) [Oxymatrine]	> 100	0.187
COc1cnc(-n2cnc(C)n2)c2[nH]cc(C(=O)C(=O)N3CCN(C(=O)c4ccccc4)CC3)c12 [Temsavir]	> 100	0.146
CCC(CC)COC(=O)[C@H](C)N[P@](=O)(OC[C@H]1O[C@@](C#N)(c2ccc3c(N)ncnn23)[C@H](O)[C@@H]1O)Oc1ccccc1 [Remdesivir]	> 100	0.275
[Cl-].c1c2c(cc3c1OCO3)-c1cc3ccc4c(c3c[n+]1CC2)OCO4 [Coptisine]	> 100	0.777
O=c1[nH]cnc2c1ncn2[C@H]1CC[C@@H](CO)O1 [Didanosine]	> 100	0.159
Cc1ccc2c(=O)c3cccc(CC(=O)O)c3oc2c1C [Vadimezan]	> 100	0.169
CCCCCCCCCN1C[C@H](O)[C@@H](O)[C@H](O)[C@H]1CO [N-Nonyldeoxynojirimycin]	> 100	0.254
NC(=O)c1ncn([C@@H]2O[C@H](CO)[C@@H](O)[C@H]2O)c1O [Mizoribine]	> 100	0.202
CCCCCCCCCCCCCCCCCCCCCCO [Docosanol]	> 100	0.266
CC(C)(C)[C@@H]1NC(=O)O[C@@H]2CCC[C@H]2OC/C=C/C(F)(F)c2nc3ccccc3nc2O[C@@H]2C[C@@H](C(=O)N[C@]3(C(=O)NS(=O)(=O)C4(C)CC4)C[C@H]3C(F)F)N(C2)C1=O [Glecaprevir]	> 100	0.369
Nc1n[nH]c2nnc(-c3c(-c4ccccc4)nn4ccccc34)cc12	> 100	0.299
Oc1cc(O)c2c(c1)O[C@@H](c1ccc(O)c(O)c1)[C@H](O)C2 [(-)-Catechin]	> 100	0.201
O=C(O)c1ccc2nc(-c3ccccc3)c(-c3ccccc3)nc2c1 [2,3-diphenylquinoxaline-6-carboxylic acid]	> 100	0.217
CCCC(CCC)C(=O)O [Valproic acid]	> 100	0.188
Nc1ccn([C@H]2CC[C@@H](CO)O2)c(=O)n1 [Zalcitabine]	> 100	0.193
Nc1nc(=O)c2ncn(CCC(CO)CO)c2[nH]1 [Penciclovir]	> 100	0.126
Oc1ccc(/C=C\c2cc(O)cc(O)c2)cc1 [Resveratrol]	> 100	0.416
O=C(/C=C/c1ccc(O)c(O)c1)O[C@@H]1C[C@@](O)(C(=O)O)C[C@@H](O)[C@@H]1O [5-Caffeoylquinic acid]	> 100	0.295

Reference: the supplement of paper PMC11821682
